In US20250313574A1, “SIALIC ACID DERIVATIVES AND METHODS OF USING SAME” (EISAI R&D MANAGEMENT CO., LTD., priority 2022, published 2025):
Where “and” joins values, the source holds several entries; their conditions need not be identical. Identical values can stand only once. Like-named read-outs stand apart in the source and are kept apart here.

Key:
[1] = molecular target: Recombinant human CD33 protein (Homo sapiens (Human), UniProt P20138); assay: CD33 competitive binding assay for HTS drug screen (fluorescent multivalent sialic acid probe)
Method in brief: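 Recombinant human CD33, coated overnight at 4° C from 10 μg/ml in pH 5.5 acetate, was preincubated briefly with compound. It was then exposed to a multivalent neutravidin/FITC/sialic acid analog A-375 probe (final 5 μM neutravidin, 15 μM A-375, 5 μM FITC) for 30 min at room temperature. After washing, bound FITC fluorescence was read.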

[2] = molecular target: recombinant human CD33 (Siglec-3, sialic acid binding Ig-like lectin 3) protein (Homo sapiens (Human), UniProt P20138); assay: Differential Scanning Fluorimetry (DSF, Protein Thermal Shift Assay); conditions: 50 μM of A-001; CD33 alone melts at approximately 55° C.
Method: FIG. 1 depicts thermograms (A) and derivative curves (B) of His-CD33 (gray) and His-CD33 with A-001 (blue).
Differential Scanning Fluorimetry (also known as DSF, Protein Thermal Shift Assay, Thermofluor Assay) was used to measure and compare the thermal melt or thermal denaturation temperature of recombinant human CD33 (Siglec-3, sialic acid binding Ig-like lectin 3) protein in the presence of 50 μM of A-001. In the absence of any compound, the CD33 protein has a thermal melt at approximately 55° C. under the method conditions described in this report.

[3] = molecular target: Recombinant Human Siglec-3/CD33 protein (His-CD33) (Homo sapiens (Human), UniProt P20138); assay: Differential scanning fluorimetry (DSF) thermal shift assay; format: binding
Recombinant Human Siglec-3/CD33 protein (His-CD33), sequence (P20138 18-259): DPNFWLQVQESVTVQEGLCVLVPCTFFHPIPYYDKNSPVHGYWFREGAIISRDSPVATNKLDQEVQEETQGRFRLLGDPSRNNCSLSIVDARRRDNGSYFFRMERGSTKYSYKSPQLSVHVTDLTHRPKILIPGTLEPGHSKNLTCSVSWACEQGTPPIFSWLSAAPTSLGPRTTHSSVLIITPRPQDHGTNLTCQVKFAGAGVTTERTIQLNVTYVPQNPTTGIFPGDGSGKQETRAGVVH

recombinant human CD33 (Siglec-3, sialic acid binding Ig-like lectin 3) protein, sequence (P20138 18-259): as above
Recombinant human CD33 protein, sequence (P20138 18-259): as above

EC50 [1]: 15 nM | increase in thermal melt (dTm D) of CD33 protein [2]: 12.2±0.7 °C | ΔTm D (° C.) ([3]; 50 μM compound, 0.5 μM CD33 protein, pH 7.4, individual determinations): 11.9 °C and 12.9 °C | ΔTm at 50 µM ([3]; 50 μM compound, 0.5 μM CD33 protein, pH 7.4, individual determinations, read-out: ΔTm D (° C.)): 12.2 °C | ΔTm at 50 µM ([3]; 50 μM compound, 0.5 μM CD33 protein, pH 7.4, read-out: Median ΔTm D (° C.)): 12.2 ± 0.7 °C | DSF (dTmD) ([3]; thermal melt shift of 0.5 μM CD33 protein with 50 μM compound): 12.9
Compound: CC(=O)N[C@H]1[C@H]([C@H](O)[C@H](O)CNC(=O)c2cc(C)c(O)c(C)c2)O[C@@](CCN2CCOC[C@@]23CCN(C(=O)OC(C)(C)C)C3)(C(=O)O)C[C@@H]1O [A-001]
